Test [1] addresses mevalonate kinase (Streptococcus pneumoniae D39). The test is described as follows: mevalonate kinase inhibition dose curves – biochemical, PK/LDH-coupled NADH absorbance, hexokinase coupling counter-screen, dose response (AID 557). To be noted: purified MK, PK/LDH coupled NADH absorbance 340 nm. For orientation: The purpose of a counterscreen is to sort out artefacts and off-target activity.

Assay in test [2]: as above
Conditions: purified MK, PK/LDH coupled NADH absorbance 340 nm; measured here: coupling enzymes counter-screen (hexokinase).

In general, IC50 refers to the concentration at which inhibition is half-maximal.

Calls of active or inactive are those of the source.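 How the source made its calls: active means clearly stronger inhibition of the target kinase than of the helper enzymes tested alone in a counter assay; inactive means the rest.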

For `Cc1nn(-c2ccccc2)c2c1C(O)n1c(nc3ccccc31)S2` (centres undefined), the result in test [1] was inactive.

For the compound `CCn1c(CC(C)C)n[nH]c1=S`, the result in test [1] was inactive. `O=c1c2ccccc2nc2n1CCC2` yielded an IC50 in test [2] of more than 1360 µM. For `CC1CCN(S(=O)(=O)c2ccc(NC(=O)CN3CCN(C)CC3)cc2)CC1`, the result in test [1] was inactive.

For `Cn1cnnc1SCC(=O)n1c2ccccc2c2ccccc21`, the result in test [1] was inactive. The same measure, in the same setting: for `CCCCOC(=O)CSC1=C(C#N)C(c2ccccc2OC)C(C#N)C(=O)N1` (centres undefined) the value was “inactive”. The same measure, in the same setting: the value for `COc1ccc(N(CC(=O)Nc2cc(OC)ccc2OC)S(C)(=O)=O)cc1` was “inactive”; that for `O=c1c2ccccc2nnn1CSc1nnc(-c2cccs2)n1Cc1ccccc1` was “inactive”. Regarding `CCN(CC)S(=O)(=O)c1ccc(C(=O)OCC(=O)N2CCN(C(=O)c3ccco3)CC2)cc1`, in test [1], the result was inactive.

For the compound `Oc1ccc(-c2n[nH]c(=S)n2Cc2ccccc2)cc1`, in test [1], the outcome was inactive. The same measure, in the same setting: the value for `CC1=NN(c2ccccc2)C(=O)C1` was “inactive”; that for `COC(=O)C1=C(C)OC(N)=C(C#N)C1c1cc(OC)c(OCC(N)=O)cc1Cl` (centres undefined) was “inactive”. For the compound `Cc1ccc(NC2c3ncccc3C(=O)N2c2ccccc2C)cc1C` (centres undefined), the half-inhibitory concentration (IC50) in test [1] is 4.5 µM. `Nc1nnc(CCS(=O)(=O)c2cc(Cl)ccc2Cl)s1`: in test [1], the outcome was inactive. Still for that read-out and setting: the value for `O=C(COC(=O)Cc1ccc(S(=O)(=O)N2CCOCC2)s1)NCc1ccccc1` was “inactive”; that for `COc1ccccc1NS(=O)(=O)c1cccc2cccnc12` was “inactive”.

As to `CC(=O)NC(CCS(C)(=O)=O)C(=O)Nc1c(C)cccc1C` (centres undefined), the result in test [1] was inactive. Turning to `CCOC(=O)c1cc2sc(C)cc2n1CC(=O)N1CCN(C(=O)c2ccco2)CC1`, in test [1], the outcome was inactive. As to `O=C1C(=O)N(CCN2CCOCC2)C(c2ccncc2)/C1=C(/O)c1ccc2c(c1)OCO2` (centres undefined), the half-inhibitory concentration (IC50) in test [1] is 116 µM. On the same count and under the same terms, for `CCN(CC)S(=O)(=O)c1ccc(NC2c3ncccc3C(=O)N2Cc2ccccc2)cc1` (centres undefined) the value was 21.9 µM. Turning to `Cn1cccc1Cc1nnc(SCC(=O)NCc2ccc(F)cc2)n1-c1ccc(F)cc1`, the outcome in test [1] was inactive. Same read-out and setting: the value for `O=C(c1ccc(F)cc1)N1CCC(N2CCCCCC2)CC1` was “inactive”; that for `COc1ncnc(OC)c1NC(=O)c1ccc(F)cc1` was “inactive”; that for `CCn1c(SCC(=O)c2ccccc2)nc2c(c1=O)SC(C)C2` (centres undefined) was “inactive”. The same measure, in the same setting: the value for `Cc1ccsc1C1C(C(=O)O)c2ccccc2C(=O)N1C` (centres undefined) was “inactive”; that for `CCOC(=O)c1[nH]c2ccccc2c1NC(=O)c1ccc(Br)o1` was “inactive”; that for `Cn1c(SCCOc2cccc(Cl)c2)nnc1-c1ccncc1` was “inactive”. Regarding `Cc1occc1C(=O)Nc1nnc(C(F)(F)F)s1`, the result in test [1] was inactive. Still for that read-out and setting: the value for `CCS(=O)(=O)NCCc1csc(C)n1` was “inactive”; that for `COc1cc(C2c3c(n[nH]c3C)C(=O)N2c2ccc(C)cc2)ccc1O` (centres undefined) was “inactive”. Still for that read-out and setting: for `O=C(NCc1cn2ccccc2n1)c1ccccc1` the value was “inactive”; for `COc1ccc2nc(NC(=O)C3CCCN(S(=O)(=O)c4cccc5nonc45)C3)sc2c1` (centres undefined), “inactive”; for `O=C(NCc1n[nH]c(=S)n1-c1ccccc1)c1ccco1`, “inactive”. Same read-out and setting: for `Cc1cccc(NC(=O)c2cnc3sccn3c2=O)n1` the value was “inactive”; for `COc1ccc(NC(=O)c2cc(-c3ccccc3OC)on2)cc1`, “inactive”. Take `Cc1noc(C)c1C(=O)OCC(=O)/C=C1\N(C)c2ccccc2C1(C)C`: in test [1], the result was inactive.

Take `CCOC(=O)c1c(C)n(C)c2ccc(O)c(CN3CCC(C)CC3)c12`: the result in test [1] was inactive. On the same count and under the same terms, the value for `CN1CCN(c2nc3c(c(=O)n(C)c(=O)n3C)n2Cc2cccc3ccccc23)CC1` was “inactive”; that for `CCCc1[nH]nc2c1C(c1ccc(OC)c(Cn3nnc4ccccc43)c1)C(C#N)=C(N)O2` (centres undefined) was “inactive”; that for `CCCCn1c(Cl)nc2c1c(=O)n(C)c(=O)n2C` was “inactive”. On the same count and under the same terms, the value for `COc1ccc(-n2c(=O)c3c4c(sc3n(CC(=O)NCc3ccco3)c2=O)CCC4)c(OC)c1` was “inactive”; that for `COc1ccc(Cl)cc1NC(=O)C1CCCN(S(=O)(=O)c2cccc3nonc23)C1` (centres undefined) was “inactive”; that for `COc1cc2c(cc1OC)CN(Cc1ccc(OC)c(C)c1OC)CC2` was “inactive”. On to `COCCCn1c(SCC(=O)NCc2ccco2)nc2sc3c(c2c1=O)CCC3`, for which the result in test [1] was inactive.

In the case of `Cc1ccc(C(=O)COC(=O)CNC(=O)c2ccco2)cc1`, the result in test [1] was inactive. Same read-out and setting: for `CC(C)NC(=O)CSc1nnc(-c2ccc(S(=O)(=O)N3CCCC3)cc2)n1CC1CCCO1` (centres undefined) the value was “inactive”; for `CCOC(=O)C1CCN(C(=O)CN(c2ccc(OC)c(OC)c2)S(=O)(=O)c2ccccc2)CC1`, “inactive”; for `N#C/C(=C(/O)COC(=O)CCc1ccc(S(=O)(=O)N2CCOCC2)cc1)c1nc2ccccc2[nH]1`, “inactive”. With `CN(C)c1ccc(CNCCC2(O)CCOC(C)(C)C2)cc1` (centres undefined), the outcome in test [1] was inactive. On the same count and under the same terms, for `CCn1nnc(NC(=O)c2cccc(-c3cc4ccccc4oc3=O)c2)n1` the value was “inactive”. Same read-out and setting: the value for `CCOc1ccc(-n2c(-c3ccco3)n[nH]c2=S)cc1` was “inactive”; that for `c1ccn2c(SCc3ccc4c(c3)OCO4)nnc2c1` was “inactive”; that for `Cc1noc(C)c1CSc1nnc(C)c(=O)[nH]1` was “inactive”.

In the case of `Cc1ccc(CNC(=O)C2CCN(S(=O)(=O)c3c(C)noc3C)CC2)cc1`, the outcome in test [1] was inactive. With `COc1c(Br)cc2c(C)c(C(=O)O)oc2c1Br`, the result in test [1] was inactive. Same read-out and setting: the value for `O=C(NCc1nnc(SCC(=O)N2CCN(c3ccccc3)CC2)o1)c1ccco1` was “inactive”. For the compound `CCn1nc(-c2cccs2)nc2c(=O)n(C)c(=O)nc1-2`, the concentration for half-maximal inhibition (IC50) in test [2] turned out to be 9.46 µM. As to `O=c1oc2ccccc2c(O)c1CN1CCCCC1`, the outcome in test [1] was inactive. Still for that read-out and setting: the value for `COc1cccc(N2CCN(C3CC(=O)N(c4ccc(C)c(Cl)c4)C3=O)CC2)c1` (centres undefined) was “inactive”; that for `CC(C)C1Oc2ccccc2N(CC(=O)NCCCN2C(C)CCCC2C)C1=O` (centres undefined) was “inactive”. Regarding `CCOc1cc(C(=O)NCCN2CCOCC2)cc(OCC)c1OCC`, in test [1], the outcome was inactive.

For `Cc1ccc2[nH]c(=O)c(CN(CCN3CCOCC3)C(=O)Nc3ccccc3F)cc2c1`, in test [1], the result was inactive.

Turning to `CC(C)OCCCNC(=O)CN1C(=O)CC(C)(C)S(=O)(=O)c2ccccc21`, in test [1], the result was inactive. Regarding `O=c1c(-c2ccccc2)c(O)c2cccc3c2n1CCC3`, the outcome in test [1] was inactive.

Turning to `N/C(CCN1CCOCC1)=N/O`, the outcome in test [1] was inactive. Still for that read-out and setting: for `Cc1cc(NC(=O)c2cc(C3CC3)on2)no1` the value was “inactive”. On to `COc1ccc(CN2C(=O)c3cccnc3C2Nc2cc(Cl)ccc2OC)cc1` (centres undefined), for which the 50% inhibitory concentration (IC50) in test [1] was 5.71 µM. With `N#Cc1ccc(-c2cccnc2)nc1SCC(=O)Nc1sc2c(c1C#N)CCC2`, the result in test [1] was inactive. On the same count and under the same terms, the value for `CN(CCC(=O)Nc1ccc2c(c1)OCO2)Cc1ccccc1` was “inactive”; that for `Cc1cccc(C(=O)Nc2ccccc2C(=O)OCc2c(C)noc2C)c1` was “inactive”; that for `O=C(c1cc(-c2ccco2)on1)N1CCCc2ccccc21` was “inactive”.

In the case of `COc1ccccc1N1CCN(Cc2ccc(OC)c3ccccc23)CC1`, the outcome in test [1] was inactive. On the same count and under the same terms, for `COc1ccc(N(CC(=O)NCc2cccs2)S(=O)(=O)c2cccnc2)cc1` the value was “inactive”; for `O=C1CN(C(=O)COC(=O)C2=COCCO2)c2ccccc2N1`, “inactive”; for `OCCN(Cc1ccccc1)Cc1cccc(F)c1`, “inactive”.

With `Cc1c(S(=O)(=O)Nc2cccc(Cl)c2)c(=O)n(C)c(=O)n1C`, the outcome in test [1] was inactive. On the same count and under the same terms, for `COc1ccc(-c2nc(C#N)c(N3CCOCC3)o2)cc1OC` the value was “inactive”.

In the case of `COc1ccc(CN2C(=O)c3cccnc3C2Nc2cc(Cl)c(OC)cc2OC)cc1` (centres undefined), in test [1], the IC50 is 15.2 µM. With `COc1ccc2[nH]cc(C3N4CC5(C)CN3CC(C)(C4)C5=O)c2c1` (centres undefined), in test [1], the result was inactive.

In test [2], `CN(Cc1c(O)ccc2c1oc(=O)c1ccccc12)C1CCCCC1` yielded an IC50 of 8.83 µM. Turning to `Cc1cc(N2CCN(C(=O)c3ccco3)CC2)n2ncnc2n1`, the outcome in test [1] was inactive. Take `COc1cc(NC(=O)c2cc(CC(C)C)on2)c(OC)cc1Cl`: the outcome in test [1] was inactive. Same read-out and setting: the value for `Cc1ccsc1CN1CCN(c2ccccn2)CC1` was “inactive”; that for `CCC(=O)Nc1ccc(NC(=O)c2ccccn2)cn1` was “inactive”.

The values are drawn from PubChem BioAssay AID557 (SRMLSC, 2006).
